# Measured values from the supplement of paper PMC10307832.
# How the values were obtained:
# Assay in all cases: relative viability (nuclei count vs DMSO), 5 days (fraction); higher = more cells survive
# HOP-62 = system: HOP-62
# How it was run: (§1)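 Dosing by pin tool came one day after lung cancer cell lines were seeded in 1536-well plates, using either one drug or a fixed anchor-drug dose plus five library-drug doses (not always all listed) in √10 steps. After 5 days, nuclei were counted on 4× images. Relative viability is treated-well nuclei count divided by vehicle-well nuclei count, and values are medians of duplicate plates.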
# NCI-H358 = system: NCI-H358
# How it was run: as §1
# NCI-H2085 = system: NCI-H2085
# How it was run: as §1
# NCI-H2170 = system: NCI-H2170
# How it was run: as §1
# HCC-78 = system: HCC-78
# How it was run: as §1
# A-427 = system: A-427
# How it was run: as §1
# NCI-H1755 = system: NCI-H1755
# How it was run: as §1
# LCLC-97TM1 = system: LCLC-97TM1
# How it was run: as §1
# LXF-289 = system: LXF-289
# How it was run: as §1
# NCI-H460 = system: NCI-H460
# How it was run: as §1
# LC-2-ad = system: LC-2-ad
# How it was run: as §1
smiles,measurement,setting,value
COc1cc(N2CCC(C(N)=O)CC2)ccc1Nc1nc(N)c(Cl)c(Nc2ccccc2S(=O)(=O)C(C)C)n1 [HG-5-88-01] + CS(=O)(=O)N1CCN(Cc2cc3nc(-c4cccc5[nH]ncc45)nc(N4CCOCC4)c3s2)CC1 [Pictilisib] (partner 1 µM),relative viability,HOP-62; first compound 0.04 µM,0.493
same,relative viability,HOP-62; first compound 0.1265 µM,0.765
same,relative viability,HOP-62; first compound 0.4 µM,0.827
same,relative viability,HOP-62; first compound 1.265 µM,0.892
same,relative viability,HOP-62; first compound 4 µM,0.936
same,relative viability,NCI-H358; first compound 0.04 µM,0.292
same,relative viability,NCI-H358; first compound 0.1265 µM,0.384
same,relative viability,NCI-H358; first compound 0.4 µM,0.302
same,relative viability,NCI-H358; first compound 1.265 µM,0.225
same,relative viability,NCI-H358; first compound 4 µM,0.301
same,relative viability,NCI-H2085; first compound 0.04 µM,0.478
same,relative viability,NCI-H2085; first compound 0.1265 µM,0.457
same,relative viability,NCI-H2085; first compound 0.4 µM,0.525
same,relative viability,NCI-H2085; first compound 1.265 µM,0.414
same,relative viability,NCI-H2085; first compound 4 µM,0.442
same,relative viability,NCI-H2170; first compound 0.04 µM,0.269
same,relative viability,NCI-H2170; first compound 0.1265 µM,0.33
same,relative viability,NCI-H2170; first compound 0.4 µM,0.28
same,relative viability,NCI-H2170; first compound 1.265 µM,0.26
same,relative viability,NCI-H2170; first compound 4 µM,0.261
same,relative viability,HCC-78; first compound 0.04 µM,0.204
same,relative viability,HCC-78; first compound 0.1265 µM,0.19
same,relative viability,HCC-78; first compound 0.4 µM,0.153
same,relative viability,HCC-78; first compound 1.265 µM,0.167
same,relative viability,HCC-78; first compound 4 µM,0.157
same,relative viability,A-427; first compound 0.04 µM,0.716
same,relative viability,A-427; first compound 0.1265 µM,0.812
same,relative viability,A-427; first compound 0.4 µM,0.706
same,relative viability,A-427; first compound 1.265 µM,0.914
same,relative viability,A-427; first compound 4 µM,0.442
same,relative viability,NCI-H1755; first compound 0.1265 µM,0.508
same,relative viability,NCI-H1755; first compound 0.4 µM,0.438
same,relative viability,NCI-H1755; first compound 1.265 µM,0.53
same,relative viability,NCI-H1755; first compound 4 µM,0.399
same,relative viability,LCLC-97TM1; first compound 0.04 µM,0.156
same,relative viability,LCLC-97TM1; first compound 0.1265 µM,0.185
same,relative viability,LCLC-97TM1; first compound 0.4 µM,0.146
same,relative viability,LCLC-97TM1; first compound 1.265 µM,0.213
same,relative viability,LCLC-97TM1; first compound 4 µM,0.135
same,relative viability,LXF-289; first compound 0.04 µM,0.819
same,relative viability,LXF-289; first compound 0.1265 µM,0.796
same,relative viability,LXF-289; first compound 0.4 µM,0.821
same,relative viability,LXF-289; first compound 1.265 µM,0.81
same,relative viability,LXF-289; first compound 4 µM,0.736
same,relative viability,NCI-H460; first compound 0.04 µM,0.379
same,relative viability,NCI-H460; first compound 0.1265 µM,0.296
same,relative viability,NCI-H460; first compound 0.4 µM,0.395
same,relative viability,NCI-H460; first compound 1.265 µM,0.332
same,relative viability,NCI-H460; first compound 4 µM,0.277
same,relative viability,LC-2-ad; first compound 0.04 µM,0.429
same,relative viability,LC-2-ad; first compound 0.1265 µM,0.491
same,relative viability,LC-2-ad; first compound 0.4 µM,0.366
same,relative viability,LC-2-ad; first compound 1.265 µM,0.448
same,relative viability,LC-2-ad; first compound 4 µM,0.334
